No end group written: not given here.
Key:
Type in all cases: cell-based
[1] = system: Enterococcus faecalis ATCC 29212; assay: microbe, parasite or virus in culture; details: E. faecalis ATCC 29212; CAMHB, 37°C 6 h + 2 h; triplicate
Procedure: (§1) Peptides corresponding to the predicted antimicrobial regions of ModoCath1 (ΔModoCath1, N-VKRTKRGARRGL […]-C), ModoCath5 (ΔModoCath5, N-[…]-C), ModoCath6 (ΔModoCath6, N-[…]-C) and PMAP36 (N-[…] PLGCG-C) were synthesized via solid-phase peptide synthesis and purified via high-performance liquid chromatography using a commercial service (GenScript, Piscataway Township, NJ, United States). The MIC of synthesized peptides was determined against a panel of bacteria comprising 3 gram-positive strains, Staphylococcus aureus ATCC 6538 (ATCC, Manassas, VA, United States), Bacillus cereus ATCC 10876, and Enterococcus faecalis ATCC 29212, and 3 gram-negative strains, Escherichia coli ATCC 25922, Pseudomonas aeruginosa ATCC 27853, and Salmonella typhimurium ATCC 14028. Ampicillin (Sigma Aldrich, St. Louis, MO, United States) and gentamicin sulfate (Sigma Aldrich) were used as controls for antimicrobial activity. The MIC was determined using a colorimetric method specified by the Microbial Viability Assay Kit-WST (Dojindo, Kumamoto, Japan) in accordance with the manufacturer’s protocol and the Clinical and Laboratory Standards Institute (CLSI) guidelines (2018). Briefly, four colonies of each bacterium were inoculated into 5 mL Luria-Bertani (LB) broth medium at 37°C for 4 to 6 h. The cells were washed with sterile saline (0.9% NaCl) twice and seeded in a single well of a 96-well plate at the cell density of 10^5 CFU/well. Subsequently, 180 μL/well of fresh Mueller-Hinton broth (MHB) was added to the plate. Different concentrations of each peptide and reference antibiotics were serially diluted in 10 μL of MHB and added to each well. The plate was incubated at 37°C for 6 h. Cation-adjusted MH broth (CAMHB) was used to culture E. faecalis. Subsequently, 10 μL of the coloring reagent was added, and cells were incubated at 37°C for 2 h. UV absorbance was measured for each well at 450 nm, using a microplate spectrophotometer (xMark spectrophotometer; Bio-Rad, Hercules, CA, United States). MIC values were determined when the difference in the optical density (OD) between treatments and blanks (media and coloring reagent only) decreased to < 0.05. Experiments were conducted in triplicate. […] The pH conditions were achieved by using acetic acid (Sigma Aldrich).

[2] = system: Pseudomonas aeruginosa ATCC 27853; assay: microbe, parasite or virus in culture; details: P. aeruginosa ATCC 27853; MHB, 37°C 6 h + 2 h; triplicate
Procedure: as §1

[3] = system: Staphylococcus aureus ATCC 6538; assay: microbe, parasite or virus in culture; details: S. aureus ATCC 6538; MHB, 37°C 6 h + 2 h; triplicate
Procedure: as §1

[4] = system: Bacillus cereus ATCC 10876; assay: microbe, parasite or virus in culture; details: B. cereus ATCC 10876; MHB, 37°C 6 h + 2 h; triplicate
Procedure: as §1

[5] = system: Salmonella typhimurium ATCC 14028; assay: microbe, parasite or virus in culture; details: S. typhimurium ATCC 14028; MHB, 37°C 6 h + 2 h; triplicate
Procedure: as §1

[6] = system: Escherichia coli ATCC 25922; assay: microbe, parasite or virus in culture; details: E. coli ATCC 25922
Procedure: as §1

[7] = system: Human primary keratinocytes; assay: Viability of keratinocytes, XTT; details: 24 h, XTT
Excerpt: The Ethics Committee of the Poitiers Hospital approved the use of human skin samples for research studies. All subjects provided written informed consent in accordance with the tenets of the Declaration of Helsinki. Normal abdominal or breast skin samples were obtained from patients undergoing plastic surgery and thoroughly washed with PBS free of calcium and magnesium (PBS; Gibco, Thermo Fisher Scientific, Waltham, MA, United States) after fat removal. The skin samples were minced into fragments of approximately 125 mm^2, using scalpel blades. Skin samples were incubated overnight at 4°C in a dispase solution (25 U/mL; Life Technologies, Carlsbad, CA, United States). Epidermal sheets were removed from the dermis, and keratinocytes were dissociated via trypsin digestion (trypsin-EDTA; Gibco) for 15 min at 37°C. The cell suspension was then filtered through a 280-μm sterile filter. DMEM (Gibco) supplemented with 10% (vol/vol) of FBS (Gibco) was added, and the suspension was centrifuged at 300 × g and 25°C for 10 min. Keratinocytes were seeded at a density of 10^7 cells in 75-cm^2 tissue culture flask in keratinocyte-serum free medium (K-SFM; Invitrogen, Carlsbad, CA, United States) supplemented with bovine pituitary extract (25 μg/mL; Invitrogen) and recombinant epidermal growth factor (EGF) (0.25 ng/mL; Invitrogen). The cultures were incubated at 37°C in a humidified atmosphere with 5% CO2 until 80% confluence and then stored frozen in liquid nitrogen until use. Finally, keratinocytes were seeded in sterile 24-well culture plates at 10^5 cells/well in K-SFM supplemented with bovine pituitary extract and EGF and cultured to 80% confluence. Cells were then starved overnight in K-SFM alone before stimulation.
Primary keratinocytes were cultured in 96-well plates at 4 × 10^4 cells per well in 0.1 mL K-SFM (Invitrogen) up to 80% confluence before being treated with various concentrations of ModoCath peptides for 24 h. Cell viability was assessed using the cell proliferation kit II (XTT; Roche, Basel, Switzerland) in accordance with the manufacturer’s protocol. The XTT labeling mixture was added after 24 h of incubation in the absence or presence of peptides at the indicated concentrations.

[8] = Control: MHB at pH 7.5 without any additives, value in brackets
[9] = value in brackets, MHB, 37°C 6 h + 2 h, triplicate

VKRTKRGARRGLTKVLKKIFGSIVKKAVSKGV [ΔModoCath1]
MIC [1]: 2 (0.57) μg/mL | MIC [2]: 2 (0.57) μg/mL | MIC [3]: 3 (0.85) μg/mL | MIC [4]: 30 (8.5) μg/mL | MIC [5]: 2 (0.57) μg/mL | MIC ([6]; 1mM MgCl2, value in brackets): 0.14 µM | MIC ([6]; 2.5mM CaCl2, value in brackets): 0.29 µM | MIC ([6]; 4.5mM KCl, value in brackets): 0.14 µM | MIC ([6]; 150mM NaCl, value in brackets): 0.14 µM | MIC [6, 8]: 0.21 µM | MIC ([6]; pH 7, value in brackets): 0.21 µM | MIC [6, 9]: 0.21 µM | Cell viability ± SD ([7]; 8 μg/mL): 97.1 ± 2.9% | Cell viability ± SD ([7]; 16 μg/mL): 91.4 ± 1.6% | Cell viability ± SD ([7]; 32 μg/mL): 56.2 ± 8.4% | Cell viability ± SD ([7]; 64 μg/mL): 5.8 ± 3.7%

VRRSKRGIKVPSFVKKVLKDVVSESIS [ΔModoCath6]
MIC [1]: > 32(10.51) μg/mL | MIC [2]: > 32(10.51) μg/mL | MIC [3]: > 32(10.51) μg/mL | MIC [4]: > 32(10.51) μg/mL | MIC [5]: > 32(10.51) μg/mL | MIC ([6]; MHB, 10^5 CFU/well, 37°C 6 h + 2 h with coloring reagent, OD 450 nm, triplicate): 5 (1.64) μg/mL | Cell viability ± SD ([7]; 8 μg/mL): 98.0 ± 1.6% | Cell viability ± SD ([7]; 16 μg/mL): 100.3 ± 1.3% | Cell viability ± SD ([7]; 32 μg/mL): 101.0 ± 2.6% | Cell viability ± SD ([7]; 64 μg/mL): 89.2 ± 7.2%

WYQLIRTFGNLIHQKYRKLLEAYRKLRD [ΔModoCath5]
MIC [1]: 2 (0.55) μg/mL | MIC [2]: > 32(8.83) μg/mL | MIC [3]: 1.5 (0.41) μg/mL | MIC [4]: 6 (1.66) μg/mL | MIC [5]: > 32(8.83) μg/mL | MIC ([6]; 1mM MgCl2, value in brackets): 2.48 µM | MIC ([6]; 150mM NaCl, value in brackets): 2.07 µM | MIC [6, 8]: 1.38 µM | MIC ([6]; pH 6, value in brackets): 0.69 µM | MIC ([6]; pH 7, value in brackets): 1.38 µM | MIC [6, 9]: 1.38 µM | Cell viability ± SD ([7]; 8 μg/mL): 98.1 ± 0.6% | Cell viability ± SD ([7]; 16 μg/mL): 96.2 ± 3.5% | Cell viability ± SD ([7]; 32 μg/mL): 79.1 ± 13.0% | Cell viability ± SD ([7]; 64 μg/mL): 48.9 ± 15.5%

From paper PMC7063992, “Opossum Cathelicidins Exhibit Antimicrobial Activity Against a Broad Spectrum of Pathogens Including West Nile Virus” (Frontiers in Immunology, 2020)
